The nature of series [1]: Anti-HCMV cytopathogenicity test, cytostatic effect on uninfected cells. As to conditions: human, NHDF cells (human prepuce fibroblasts), 6 days incubation, visual assessment. It is filed as cell-based. As for the experimental part: (§1) Anti-HCMV (Anti-Human Cytomegalovirus) Cytopathogenicity Tests The test compounds are employed as 50 millimolar (mM) solutions in dimethyl sulfoxide (DMSO). Ganciclovir® serves as reference compound. After the addition of 2 μl of the 50, 5, 0.5 and 0.05 mM DMSO stock solutions respectively to 98 μl portions of cell culture medium in row […] for duplicate determinations, 1:2 dilutions are carried out with 50 μl portions of medium up to row 11 of the 96-well plate. The wells in rows 1 and 12 each contain 50 μl of medium. 150 μl of a suspension of 1×10^4 cells (human prepuce fibroblasts [NHDF]) are then pipetted into each of the wells (row 1=cell control) and, in rows 2-12, a mixture of HCMV-infected and uninfected NHDF cells (M.O.I.=0.001-0.003), i.e. 1-3 infected cells per 1000 uninfected cells. Row 12 (without substance) serves as virus control. The final test concentrations are […]. The plates are incubated at 37° C./5% CO2 for 6 days, i.e. until all the cells in the virus controls are infected (100% cytopathogenic effect [CPE]). The wells are then fixed and stained by the addition of a mixture of formalin and Giemsa's dye (30 min), washed with bidistilled water and dried in a drying oven at 50° C. The plates are then assessed visually using an overhead microscope (plaque multiplier from Technomara). The following data can be obtained from the test plates: CC50 (NHDF)=substance concentration in MM at which no visible cytostatic effects on the cells are evident in comparison with the untreated cell control;
(Damage to the host cells serves as the signal in cytopathic effect assays.)

Series [2] concerns HCMV. Description: Anti-HCMV cytopathogenicity test (CPE inhibition). It is filed as cell-based, human cytomegalovirus. Particulars: for EC50: Human betaherpesvirus 5, 144 h, HCMV-infected NHDF cells, M.O.I. 0.001-0.003, 6 days, inhibition of CPE by 50%; for SI HCMV: selectivity index = CC50 (NHDF)/EC50 (HCMV). How it is done:
as §1, with “plates: EC50 (HCMV)=substance” for “plates: CC50 (NHDF)=substance”, “MM” for “MM at”, “which inhibits” for “which no visible cytostatic effects on”, “the CPE (cytopathic effect) by 50%” for “the cells are evident”, “untreated virus” for “untreated cell”, “control; SI (selectivity index)=CC50 (NHDF)/EC50 (HCMV).” for “control;”

A short description of series [3]: Pharmacokinetical investigations after intravenous or oral administration. It is filed as in vivo. As to conditions: male Wistar rat. As for the experimental part: Pharmacokinetical Investigations
The pharmacokinetics of the active substances are investigated after intravenous or oral administration of doses in the range from 1 mg/kg intravenously and 3 mg/kg orally to three male Wistar rats per administration route. In order to make a repeated removal of blood possible a catheter is implanted into the jugular vein of the animals on the day before the experiment. The substances are administered intravenously as well as orally as a solution. Thereby, in most cases a plasma formulation (rat plasma with 1-2% ethanol or DMSO, 2 ml/kg) is used for the intravenous administration and a PEG formulation (10% ethanol, 40% PEG 400, 50% water, 5 ml/kg) is used for the oral administration.
After the administration of the active substance blood samples are collected over 24 h via the catheter into heparin-containing sample tubes. Subsequently to the removal of blood the blood samples are centrifuged and the plasma supernatant is pipetted into Eppendorf tubes. The plasma samples are stored at least −15° C. until the analysis takes place.
For the work-up the samples are thawed. The plasma proteins are subsequently precipitated by the addition of acetonitrile which comprises an internal standard. As internal standard a substance from the same structural class is selected which is structurally as similar as possible to the active compound. For the preparation of calibration samples different concentrations of the active substance are added to aliquots of empty plasma and these are worked up together with the unknown samples. Additionally quality control samples with three different concentrations are prepared which serve to validate the analytical procedure.
The determination of the active substance in the samples takes place by high performance liquid chromatography with mass spectrometrical detection (LC/MS-MS). The active substance concentrations in the unknown samples are determined based on their relative peak heights or areas compared to the calibration curve using the program Concalc for Windows (CCW, Integrierte Labordatensysteme, version 2.5 or later, Bayer AG). Subsequently, the pharmacokinetical parameters are calculated from the plasma concentration development over time individualized to an animal using non-compartimental analysis with the aid of the program KINCALC, version 2.50.02 (Bayer AG, 2001).
The following data can be acquired from these tests:
AUC=total area under the drug-concentration over time curve;
Cmax=maximum concentration;

The mark [4] stands for this setting: 3 mg/kg p.o., solution in 10% ethanol, 40% PEG 400, 50% water, 5 ml/kg.

The term CC50 denotes the concentration at which the toxic effect on the cells reaches its halfway point. In general, EC50 refers to the concentration needed to bring the measured effect to its halfway point. High values mean lower potency in that assay, low ones higher potency in that assay. The molecule `N#CC1(C(=O)Nc2cccc(NS(=O)(=O)c3ccc(-c4noc(-c5cccc(N)n5)n4)cc3)c2)CC1` [Example 2, N-{3-[({4-[5-(6-Aminopyridin-2-yl)-1,2,4-oxadiazol-3-yl]phenyl}sulfonyl)amino]phenyl}-1-cyanocyclopropanecarboxamide] had a CC50 at 6 days in series [1] of 141 µM. For the same molecule, in series [2], a half-maximal response (EC50) required 0.007 µM and the “SI HCMV” value is 20140.
The matching figures for `CC(=O)Nc1cccc(-c2nc(-c3ccc(S(=O)(=O)Nc4cc(F)cc(NC(=O)C5(C#N)CC5)c4)cc3)no2)n1` [Example 5, N-{3-[({4-[5-(6-Acetylaminopyridin-2-yl)-1,2,4-oxadiazol-3-yl]phenyl}sulfonyl)amino]-5-fluorophenyl}-1-cyanocyclopropanecarboxamide]: 71 µM, 0.026 µM and 2730.
For `Cl.N#CC1(C(=O)Nc2cccc(NS(=O)(=O)c3ccc(C#Cc4cccc(N)n4)cc3)c2)CC1` [Example 4, N-{3-[({4-[(6-Aminopyridin-2-yl)ethynyl]phenyl}sulfonyl)amino]phenyl}-1-cyanocyclopropanecarboxamide Hydrochloride], in that order: 47 µM, 0.021 µM and 2240.
For `Cc1c(NC(=O)C2(C#N)CC2)cccc1NS(=O)(=O)c1ccc(-c2noc(-c3cccc(N)n3)n2)cc1` [Example 3, N-{3-[({4-[5-(6-Aminopyridin-2-yl)-1,2,4-oxadiazol-3-yl]phenyl}sulfonyl)amino]-2-methylphenyl}-1-cyanocyclopropanecarboxamide], in that order: 102 µM, 0.002 µM and 51000.
One may read the half-life as the time needed for the level to fall by half in the phase considered. Low values mean fast loss, high ones slow loss. As a reminder, the bioavailability is dose-corrected exposure relative to a reference, in per cent. `N#CC1(C(=O)Nc2cc(F)cc(NS(=O)(=O)c3ccc(-c4noc(-c5cccc(N)n5)n4)cc3)c2)CC1` [Example 1, N-{3-[({4-[5-(6-Aminopyridin-2-yl)-1,2,4-oxadiazol-3-yl]phenyl}sulfonyl)amino]-5-fluorophenyl}-1-cyanocyclopropanecarboxamide]: the CC50 at 6 days in series [1] was 71 µM. The molecule also showed a half-life in series [3] (iv, 1.3 mg/kg i.v., solution in rat plasma with 1% DMSO, 2 ml/kg) of 4.26 h. In series [3] (iv, 1.3 mg/kg i.v., solution in rat plasma with 1% DMSO, 2 ml/kg, read-out: CLPlasma (converted)), the clearance is 1.07 mL/min/kg. Moreover, the Vd in series [3] (iv, 1.3 mg/kg i.v., solution in rat plasma with 1% DMSO, 2 ml/kg, read-out: Vss) stood at 0.321 L/kg. In series [3] (1.3 mg/kg i.v., solution in rat plasma with 1% DMSO, 2 ml/kg), this molecule returned a CLBlood of 2.13 mL/min/kg. Further, in series [3] (setting [4]), the “AUCnorm, p.o.” value amounted to 8.58 kg·h/L and the “Cmax, norm, p.o.” value came out at 1.08 kg/L. In addition, the bioavailability in series [3] (plasma, po, 3 mg/kg p.o., solution in 10% ethanol, 40% PEG 400, 50% water, 5 ml/kg, read-out: F (bioavailability)) came to 55.3%. Further, in series [2], the EC50 came to 0.011 µM and the “SI HCMV” value amounted to 6450.

For the origin of these results see US8318761B2, “Substituted arylsulfonamides as antiviral agents” (Aicuris GmbH & Co. KG, priority 2006, dated 2012).
